According to US20100204265A1 (priority 2009, published 2010):

What follows are compounds tested on ET (Huh-lucubineo-ET) cell line harboring I389luc-ubi-neo/NS3-3′/ET HCV replicon (assay: Replicon assay (HCV replicon, luciferase readout)). Conditions: Hepatitis C virus.
Type: cell-based
Procedure, shortened: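 Compounds at 10-point 2-fold dilutions (overall 0.1 nM to […], 0.5% DMSO) were applied to ET cells carrying a luciferase-neo HCV replicon, seeded a day earlier. After 48-72 hours, luciferase-based % inhibition was fitted with a Hill equation for EC50, and parallel WST-1 readings gave TC50.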

SMILES	EC50
O=C(c1nc2c(C(F)(F)F)cc(-c3ccoc3)cn2c1Cl)N1CC=C(c2cc(F)ccn2)CC1 [Compound 209, (3-Chloro-6-furan-3-yl-8-trifluoromethyl-imidazo[1,2-a]pyridin-2-yl)-(4-fluoro-3′,6′-dihydro-2′H-[2,4′]bipyridinyl-1′-yl)-methanone]	0.399 µM
CNC(=O)CNC(=O)Cc1cn2cc(-c3ccoc3)cc(C(F)(F)F)c2n1 [Compound 301, 2-(6-Furan-3-yl-8-trifluoromethyl-imidazo[1,2-a]pyridin-2-yl)-N-methylcarbamoylmethyl-acetamide]	> 50 µM
CS(=O)(=O)NC1CN(C(=O)Cc2cn3cc(-c4ccoc4)cc(C(F)(F)F)c3n2)C1 [Compound 190, N-{1-[2-(6-Furan-3-yl-8-trifluoromethyl-imidazo[1,2-a]pyridin-2-yl)-acetyl]-azetidin-3-yl}-methanesulfonamide]	> 50 µM
COC(=O)C(CO)NC(=O)Cc1cn2cc(-c3ccoc3)cc(C(F)(F)F)c2n1 (centres unmarked) [Compound 292, 2-[2-(6-Furan-3-yl-8-trifluoromethyl-imidazo[1,2-a]pyridin-2-yl)-acetylamino]-3-hydroxy-propionic acid methyl ester]	> 50 µM
NC(=O)CNC(=O)c1cn2cc(-c3ccoc3)cc(C(F)(F)F)c2n1 [Compound 247, 6-Furan-3-yl-8-trifluoromethyl-imidazo[1,2-a]pyridine-2-carboxylic acid carbamoylmethyl-amide]	> 50 µM
O=C(c1nc2c(C(F)(F)F)cc(-c3ccoc3)cn2c1Cl)N1CCC(F)(c2ncccc2F)CC1 [Compound 223, (3-Chloro-6-furan-3-yl-8-trifluoromethyl-imidazo[1,2-a]pyridin-2-yl)-(3,4′-difluoro-3′,4′,5′,6′-tetrahydro-2′H-[2,4′]bipyridinyl-1′-yl)-methanone]	0.657 µM
CN(C1CN(C(=O)c2nc3c(C(F)(F)F)cc(-c4ccoc4)cn3c2Cl)C1)S(C)(=O)=O [Compound 143, N-[1-(3-Chloro-6-furan-3-yl-8-trifluoromethyl-imidazo[1,2-a]pyridine-2-carbonyl)-azetidin-3-yl]-N-methyl-methanesulfonamide]	0.901 µM
COC(=O)C(CCCCNC(=O)OC(C)(C)C)NC(=O)c1cn2cc(-c3ccoc3)cc(C(F)(F)F)c2n1 (centres unmarked) [Compound 257, 6-tert-Butoxycarbonylamino-2-[(6-furan-3-yl-8-trifluoromethyl-imidazo[1,2-a]pyridine-2-carbonyl)-amino]-hexanoic acid methyl ester]	> 50 µM
O=C(c1nc2c(C(F)(F)F)cc(-c3cn[nH]c3)cn2c1Cl)N1CC=C(c2cn[nH]c2)CC1 [Compound 112, [3-Chloro-6-(1H-pyrazol-4-yl)-8-trifluoromethyl-imidazo[1,2-a]pyridin-2-yl]-[4-(1H-pyrazol-4-yl)-3,6-dihydro-2H-pyridin-1-yl]-methanone]	0.368 µM
FC(F)(F)c1cc(-c2ccoc2)cn2cc(Cc3nc(COc4ccccc4)no3)nc12 [Compound 231, 6-Furan-3-yl-2-(3-phenoxymethyl-[1,2,4]oxadiazol-5-ylmethyl)-8-trifluoromethyl-imidazo[1,2-a]pyridine]	> 50 µM
O=C(c1nc2c(C(F)(F)F)cc(-c3cn[nH]c3)cn2c1Cl)N1CC=C(c2cnoc2)C1 [Compound 133, [3-Chloro-6-(1H-pyrazol-4-yl)-8-trifluoromethyl-imidazo[1,2-a]pyridin-2-yl]-(3-isoxazol-4-yl-2,5-dihydro-pyrrol-1-yl)-methanone]	3.47 µM
O=C(c1nc2c(C(F)(F)F)cc(-c3ccoc3)cn2c1Cl)N1CC=C(c2ncncc2F)CC1 [Compound 208, (3-Chloro-6-furan-3-yl-8-trifluoromethyl-imidazo[1,2-a]pyridin-2-yl)-[4-(5-fluoro-pyrimidin-4-yl)-3,6-dihydro-2H-pyridin-1-yl]-methanone]	0.312 µM
O=C(c1nc2c(C(F)(F)F)cc(-c3ccccc3)cn2c1Cl)N1CC=C(c2nccs2)C1 [Compound 215, (3-Chloro-6-phenyl-8-trifluoromethyl-imidazo[1,2-a]pyridin-2-yl)-(3-thiazol-2-yl-2,5-dihydro-pyrrol-1-yl)-methanone]	0.0322 µM
O=C(c1nc2c(C(F)(F)F)cc(-c3ccoc3)cn2c1Cl)N1CCC(c2ccccc2F)C(O)C1 (centres unmarked) [Compound 102, (3-Chloro-6-furan-3-yl-8-trifluoromethyl-imidazo[1,2-a]pyridin-2-yl)-[4-(2-fluoro-phenyl)-3-hydroxy-piperidin-1-yl]-methanone]	0.0469 µM
NC(=O)C(CO)NC(=O)c1cn2cc(-c3ccoc3)cc(C(F)(F)F)c2n1 (centres unmarked) [Compound 279, 6-Furan-3-yl-8-trifluoromethyl-imidazo[1,2-a]pyridine-2-carboxylic acid (1-carbamoyl-2-hydroxy-ethyl)-amide]	> 50 µM
O=C(NCCc1cn2cc(-c3ccoc3)cc(C(F)(F)F)c2n1)c1cccs1 [Compound 263, Thiophene-2-carboxylic acid [2-(6-furan-3-yl-8-trifluoromethyl-imidazo[1,2-a]pyridin-2-yl)-ethyl]-amide]	> 50 µM

SMILES	EC50
Cc1ccnc(C2=CCN(C(=O)c3nc4c(C(F)(F)F)cc(-c5ccoc5)cn4c3Cl)CC2)c1F [Compound 206, (3-Chloro-6-furan-3-yl-8-trifluoromethyl-imidazo[1,2-a]pyridin-2-yl)-(3-fluoro-4-methyl-3′,6′-dihydro-2′H-[2,4′]bipyridinyl-1′-yl)-methanone]	5.95 µM
O=C(Cc1ccccc1F)NCc1cn2cc(-c3ccoc3)cc(C(F)(F)F)c2n1 [Compound 129, 2-(2-Fluoro-phenyl)-N-(6-furan-3-yl-8-trifluoromethyl-imidazo[1,2-a]pyridin-2-ylmethyl)-acetamide]	20.3 µM
COC(=O)N1CCCN(C(=O)c2nc3c(C(F)(F)F)cc(-c4ccoc4)cn3c2Cl)CC1 [Compound 331, 4-(3-Chloro-6-furan-3-yl-8-trifluoromethyl-imidazo[1,2-a]pyridine-2-carbonyl)-[1,4]diazepane-1-carboxylic acid methyl ester]	26.8 µM
O=C(c1nc2c(C(F)(F)F)cc(-c3ccoc3)cn2c1Cl)N1CC[C@@H](NC(=O)C(F)(F)F)C1 [Compound 162, N-[1-(3-Chloro-6-furan-3-yl-8-trifluoromethyl-imidazo[1,2-a]pyridine-2-carbonyl)-pyrrohdin-3-yl]-2,2,2-trifluoro-acetamide]	43.5 µM
O=C(O)CNC(=O)c1cn2cc(-c3ccoc3)cc(C(F)(F)F)c2n1 [Compound 264, [(6-Furan-3-yl-8-trifluoromethyl-imidazo[1,2-a]pyridine-2-carbonyl)-amino]-acetic acid]	> 50 µM
O=C(c1nc2c(C(F)(F)F)cc(-c3ccoc3)cn2c1Cl)N1CC=C(c2cccc(F)n2)CC1 [Compound 204, (3-Chloro-6-furan-3-yl-8-trifluoromethyl-imidazo[1,2-a]pyridin-2-yl)-(6-fluoro-3′,6′-dihydro-2′H-[2,4′]bipyridinyl-1′-yl)-methanone]	3.71 µM
O=C(c1nc2c(C(F)(F)F)cc(-c3cn[nH]c3)cn2c1Cl)N1CC=C(c2c[nH]cn2)C1 [Compound 104, [3-Chloro-6-(1H-pyrazol-4-yl)-8-trifluoromethyl-imidazo[1,2-a]pyridin-2-yl]-[3-(1H-imidazol-4-yl)-2,5-dihydro-pyrrol-1-yl]-methanone]	5.96 µM
O=C(Cc1cn2cc(-c3ccoc3)cc(C(F)(F)F)c2n1)N1Cc2ccccc2C1 [Compound 113, 1-(1,3-Dihydro-isoindol-2-yl)-2-(6-furan-3-yl-8-trifluoromethyl-imidazo[1,2-a]pyridin-2-yl)-ethanone]	8.63 µM
CC(C)C(NC(=O)c1cn2cc(-c3ccoc3)cc(C(F)(F)F)c2n1)C(N)=O (centres unmarked) [Compound 278, 6-Furan-3-yl-8-trifluoromethyl-imidazo[1,2-a]pyridine-2-carboxylic acid (1-carbamoyl-2-methyl-propyl)-amide]	> 50 µM
N#Cc1cccnc1C1=CCN(C(=O)c2nc3c(C(F)(F)F)cc(-c4ccoc4)cn3c2Cl)CC1 [Compound 211, 1′-(3-Chloro-6-furan-3-yl-8-trifluoromethyl-imidazo[1,2-a]pyridine-2-carbonyl)-1′,2′,3′,6′-tetrahydro-[2,4′]bipyridinyl-3-carbonitrile]	1.48 µM
CC(NC(=O)Cc1cn2cc(-c3ccoc3)cc(C(F)(F)F)c2n1)C(N)=O (centres unmarked) [Compound 296, 2-[2-(6-Furan-3-yl-8-trifluoromethyl-imidazo[1,2-a]pyridin-2-yl)-acetylamino]-propionamide]	> 50 µM
O=C(c1nc2c(C(F)(F)F)cc(-c3ccoc3)cn2c1Cl)N1CC=C(C#Cc2cccnc2)CC1 [Compound 198, (3-Chloro-6-furan-3-yl-8-trifluoromethyl-imidazo[1,2-a]pyridin-2-yl)-(4-pyridin-3-ylethynyl-3,6-dihydro-2H-pyridin-1-yl)-methanone]	14.6 µM
CC(C(=O)NCc1cn2cc(-c3ccoc3)cc(C(F)(F)F)c2n1)N(C)C (centres unmarked) [Compound 262, 2-Dimethylamino-N-(6-furan-3-yl-8-trifluoromethyl-imidazo[1,2-a]pyridin-2-ylmethyl)-propionamide]	> 50 µM
FC(F)(F)c1cc(-c2ccoc2)cn2cc(Cc3nc(-c4ccccc4)no3)nc12 [Compound 229, 6-Furan-3-yl-2-(3-phenyl-[1,2,4,]oxadiazol-5-ylmethyl)-8-trifluoromethyl-imidazo[1,2-a]pyridine]	> 50 µM
O=C(NC(Cc1ccccc1)C(=O)O)c1cn2cc(-c3ccoc3)cc(C(F)(F)F)c2n1 (centres unmarked) [Compound 286, 2-[(6-Furan-3-yl-8-trifluoromethyl-imidazo[1,2-a]pyridine-2-carbonyl)-amino]-3-phenyl-propionic acid]	> 50 µM
O=C(NCCc1cn2cc(-c3ccoc3)cc(C(F)(F)F)c2n1)Nc1ccccc1 [Compound 283, 1-[2-(6-Furan-3-yl-8-trifluoromethyl-imidazo[1,2-a]pyridin-2-yl)-ethyl]-3-phenyl-urea]	> 50 µM
